In article PMC5635026, “Homo-PROTACs: bivalent small-molecule dimerizers of the VHL E3 ubiquitin ligase to induce self-degradation” (Nature Communications, 2017):

How the values were obtained:
VCB = target: T1, VCB (Homo sapiens, UniProt P40337); assay: AlphaLISA proximity assay of ternary complex formation; assay type: binding; settings: biotinylated VCB 20 nM, His6-VCB 20 nM, compound 0.5–200 nM
T1 construct: made in house
Experimental: Biotinylation of VCB. The VCB complex was mixed with EZ-link NHS-PEG4-biotin (Thermo Scientific) in a 1:1 molar ratio and incubated at room temperature for 1 h. The reaction was quenched using 1 M Tris-HCl, pH 7.5, and unreacted NHS-biotin was removed with a PD-10 MiniTrap desalting column (GE Healthcare) equilibrated with 20 mM HEPES, pH 7.5, 150 mM NaCl and 1 mM DTT.
AlphaLISA assay. All assays were performed at room temperature in 384-well plates with a final assay volume of 25 µL per well; plates were sealed with transparent film between addition of reagents. All reagents were prepared as 5× stocks diluted in 50 mM HEPES, pH 7.5, 100 mM NaCl, 0.1% (w/v) bovine serum albumin and 0.02% (w/v) 3-[(cholamidopropyl)dimethylammonio]-1-propanesulfonate (CHAPS). Biotinylated VCB (20 nM final) and His6-VCB (20 nM final) were incubated with a range of Homo-PROTAC concentrations (0.5–200 nM; three-in-five serial dilution) for 1 h. Anti-His acceptor beads (PerkinElmer, 10 µg ml^−1 final) were added and plates were incubated for another hour. Streptavidin-coated donor beads (PerkinElmer, 10 µg ml^−1 final) were added and plates were incubated for a final 1 h. Plates were read on a PHERAstar FS (BMG Labtech) using an optic module with an excitation wavelength of 680 nm and emission wavelength of 615 nm. Intensity values were plotted against PROTAC concentration on a log10 scale.

pVHL19 = pVHL19 (Homo sapiens, UniProt P40337); assay: Immunoblot of pVHL19 protein level in HeLa cells after compound treatment; assay type: cell-based; parameters: endogenous in cells; host or cells: HeLa; settings: 1 µM, 10 h, DMSO = 100, Fig. 4a, read-out: pVHL19 band quantification normalized to 0.1% DMSO
pVHL30 = pVHL30 (Homo sapiens, UniProt P40337); assay: Immunoblot of pVHL30 protein level in U2OS cells (time course); assay type: cell-based; parameters: endogenous in cells; settings: for cellular efficacy at longer time points: after 36 h; for time of treatment to complete degradation of pVHL30: time course
Experimental: Cell culture. Human cell lines HeLa, U2OS and HEK 293, purchased from ATCC, were propagated in DMEM supplemented with 10% fetal bovine serum (FBS), L- glutamine, 100 μg ml^−1 of penicillin/streptomycin at 37 °C and 5% CO2. Cells were maintained for no more than 30 passages. All cell lines were routinely tested for mycoplasma contamination using MycoAlert kit from Lonza. For compound treatment experiments, cells were transferred in six-well plates with either 3 × 10^5 or 5 × 10^5 cells per well in 2 ml of media. At 80% confluence, cells were treated with compounds at the desired concentration, reaching final DMSO concentration of 0.1% v/v. Cells were incubated at 37 °C and 5% CO2 for the desired time before harvesting.
Immunoblotting. Cells were lysed in lysis buffer (20 mM Tris pH 8, 150 mM NaCl, 1% Triton × 100) and a protease inhibitor cocktail (Roche) per 10 ml buffer. For protein extracts, the dishes were placed on ice. The media was aspirated and the tissue layer washed twice with ice-cold phosphate buffer saline (PBS). Lysis buffer (120 μl) was added and the cells detached from the surface with a cell scraper. After removal of the insoluble fraction by centrifugation, the protein concentration of the supernatant was determined by Pierce™ Coomassie (Bradford) Protein Assay Kit. Protein extracts were fractionated by SDS-PAGE on 4–12% Tris-Acetate NuPage® Novex® (Life Technologies) polyacrylamide gels and transferred to a nitrocellulose membrane using wet transfer. The membrane was then blocked with 5 % w/v Bovine serum albumin (BSA) in Tris-buffered saline (TBS) with 0.1% w/v Tween-20. For detecting proteins the following primary antibodies in the given concentrations were used: anti-β-Actin (Cell Signaling Technology, 4970S, 13E5) 1:2000, anti-VHL (Cell Signaling Technology, #68547) 1:1000, anti-Hif-1α (BD Biosciences, 610959, clone 54) 1:1,000, anti-hydroxy-HIF-1α (Hyp564) (Cell Signaling Techonology; #3434) 1:1,000, anti-PHD2 (Bethyl Laboratories; A300-322A) 1:1,000, anti-PHD3 (Bethyl Laboratories; A300-327A) 1:1000, anti-CRBN (Proteintech; 11435-1-AP) 1:1,000. Following incubation with a horseradish peroxidase-conjugated secondary antibody (Cell Signaling Technology), the signal was developed using enhanced chemiluminescence (ECL) Western Blotting Detection Kit (Amersham) on Amersham Hyperfilm ECL film (Amersham). Band quantification was performed using ImageJ software and reported as relative amount as ratio of the each protein band relative to the lane’s loading control. The values obtained were then normalized to 0.1% DMSO vehicle control. See Supplementary Fig. 12 for full-scanned images of western-blots shown in the main text figures.

Chain of pVHL19 (P40337 54-213): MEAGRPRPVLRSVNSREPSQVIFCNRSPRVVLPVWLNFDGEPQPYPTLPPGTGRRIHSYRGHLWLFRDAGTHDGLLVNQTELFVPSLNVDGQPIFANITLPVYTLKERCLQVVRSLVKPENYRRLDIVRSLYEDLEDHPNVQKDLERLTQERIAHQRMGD
Chain of pVHL19 (Q15369 whole entry partner): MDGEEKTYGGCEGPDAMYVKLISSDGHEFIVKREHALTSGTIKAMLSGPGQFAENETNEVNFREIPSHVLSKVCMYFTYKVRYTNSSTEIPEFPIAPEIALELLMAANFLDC
Chain of pVHL19 (Q15370 whole entry partner): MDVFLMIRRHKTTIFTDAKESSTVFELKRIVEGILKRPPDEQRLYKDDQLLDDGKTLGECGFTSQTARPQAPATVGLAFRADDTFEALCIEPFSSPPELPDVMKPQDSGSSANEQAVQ
T1 sequence (P40337 54-213): as the sequence (P40337 54-213) above
T1 sequence (Q15369 17-112 partner limits assumed): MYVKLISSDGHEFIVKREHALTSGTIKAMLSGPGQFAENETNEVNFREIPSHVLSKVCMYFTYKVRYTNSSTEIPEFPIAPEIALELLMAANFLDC
T1 sequence (Q15370 1-104 partner limits assumed): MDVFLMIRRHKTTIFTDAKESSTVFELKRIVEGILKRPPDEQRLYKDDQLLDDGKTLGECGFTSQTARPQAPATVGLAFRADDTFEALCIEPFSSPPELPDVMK
Chain of pVHL30 (P40337 whole entry): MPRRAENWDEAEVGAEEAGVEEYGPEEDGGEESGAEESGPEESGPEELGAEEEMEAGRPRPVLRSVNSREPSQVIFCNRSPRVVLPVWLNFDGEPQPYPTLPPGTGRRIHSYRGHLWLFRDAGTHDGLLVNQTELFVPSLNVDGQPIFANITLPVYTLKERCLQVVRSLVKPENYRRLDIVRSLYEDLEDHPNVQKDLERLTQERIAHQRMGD

ternary complex formation, AlphaLISA intensity (VCB) | remaining activity at 1 µM (pVHL19) | cellular efficacy at longer time points (pVHL30) | time of treatment to complete degradation of pVHL30 (pVHL30) | SMILES
negligible levels of complex formation | 102% | lost its cellular efficacy | 2 h | Cc1ncsc1-c1ccc(CNC(=O)[C@@H]2C[C@@H](O)CN2C(=O)[C@@H](NC(=O)COCCOCCOCCOCC(=O)N[C@H](C(=O)N2C[C@H](O)C[C@H]2C(=O)NCc2ccc(-c3scnc3C)cc2)C(C)(C)C)C(C)(C)C)cc1 [CM09, N ^1 ,N ^14-bis((S)-1-((2S,4R)-4-hydroxy-2-((4-(4-methylthiazol-5-yl)benzyl)carbamoyl)pyrrolidin-1-yl)-3,3-dimethyl-1-oxobutan-2-yl)-3,6,9,12-tetraoxatetradecanediamide]
negligible levels of complex formation | 92% | retained their efficacy | 2 h | Cc1ncsc1-c1ccc(CNC(=O)[C@@H]2C[C@@H](O)CN2C(=O)[C@@H](NC(=O)COCCOCCOCCOCCOCC(=O)N[C@H](C(=O)N2C[C@H](O)C[C@H]2C(=O)NCc2ccc(-c3scnc3C)cc2)C(C)(C)C)C(C)(C)C)cc1 [CM10, N ^1 ,N ^17-bis((S)-1-((2S,4R)-4-hydroxy-2-((4-(4-methylthiazol-5-yl)benzyl)carbamoyl)pyrrolidin-1-yl)-3,3-dimethyl-1-oxobutan-2-yl)-3,6,9,12,15-pentaoxaheptadecanediamide]
highest intensity signal | 91% | retained their efficacy | 1 h | Cc1ncsc1-c1ccc(CNC(=O)[C@@H]2C[C@@H](O)CN2C(=O)[C@@H](NC(=O)COCCOCCOCCOCCOCCOCC(=O)N[C@H](C(=O)N2C[C@H](O)C[C@H]2C(=O)NCc2ccc(-c3scnc3C)cc2)C(C)(C)C)C(C)(C)C)cc1 [CM11, N ^1 ,N ^20-bis((S)-1-((2S,4R)-4-hydroxy-2-((4-(4-methylthiazol-5-yl)benzyl)carbamoyl)pyrrolidin-1-yl)-3,3-dimethyl-1-oxobutan-2-yl)-3,6,9,12,15,18-hexaoxaicosanediamide]
